Source: patent publication US20060188913A1, “Methods and products for enhancing immune responses using imidazoquinoline compounds” (University of Iowa Research Foundation, priority 2001, published 2006)

Columns and labels:
[1] = molecular target: T1, hTLR9 (Homo sapiens, UniProt Q9NR96, H530R/Q688R); assay: Reconstitution of hTLR9 signaling in 293 fibroblasts (NF-kappa B luciferase, IL-8 ELISA); format: cell-based; settings: 2006 2 μM, LPS 100 ng/ml, FIG. 10
T1 construct: 293-TLR9-Luc cells contain a genomic copy of the hTLR9 open reading frame and the NF-kappa B-luciferase cassette; expressed in transfected cells; host or cells: 293-TLR9-Luc (stably transfected human embryo kidney 293 cells)
T1 sequence (Q9NR96 26-1032 H530R/Q688R): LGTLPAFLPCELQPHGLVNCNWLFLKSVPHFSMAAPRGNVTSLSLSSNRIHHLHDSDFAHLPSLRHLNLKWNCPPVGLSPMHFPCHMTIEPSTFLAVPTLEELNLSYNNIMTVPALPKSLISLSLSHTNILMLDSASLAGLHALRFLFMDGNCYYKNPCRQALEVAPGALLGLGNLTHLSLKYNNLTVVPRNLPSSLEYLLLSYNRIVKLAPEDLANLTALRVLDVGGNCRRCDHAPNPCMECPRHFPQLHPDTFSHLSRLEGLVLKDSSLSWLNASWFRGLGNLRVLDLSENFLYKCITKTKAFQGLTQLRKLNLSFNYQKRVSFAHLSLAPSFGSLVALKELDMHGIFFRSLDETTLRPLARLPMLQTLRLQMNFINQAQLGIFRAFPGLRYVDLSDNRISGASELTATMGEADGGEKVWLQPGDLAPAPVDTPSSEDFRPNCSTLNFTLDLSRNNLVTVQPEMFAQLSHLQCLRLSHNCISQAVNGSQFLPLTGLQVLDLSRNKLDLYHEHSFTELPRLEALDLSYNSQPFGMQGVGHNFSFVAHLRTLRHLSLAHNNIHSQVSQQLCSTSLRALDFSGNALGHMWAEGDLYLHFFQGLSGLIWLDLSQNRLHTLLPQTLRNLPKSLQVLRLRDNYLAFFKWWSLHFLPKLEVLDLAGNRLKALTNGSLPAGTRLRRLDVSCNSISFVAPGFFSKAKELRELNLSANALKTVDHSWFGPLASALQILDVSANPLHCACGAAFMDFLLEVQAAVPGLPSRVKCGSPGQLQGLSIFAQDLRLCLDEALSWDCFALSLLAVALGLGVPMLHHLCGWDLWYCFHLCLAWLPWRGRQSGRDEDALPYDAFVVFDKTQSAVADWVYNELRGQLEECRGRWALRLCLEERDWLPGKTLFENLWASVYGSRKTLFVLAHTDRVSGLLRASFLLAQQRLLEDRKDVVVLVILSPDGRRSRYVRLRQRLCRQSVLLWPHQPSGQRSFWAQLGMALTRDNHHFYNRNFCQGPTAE
Source text: Methods for cloning murine and human TLR9 have been described in pending U.S. patent application Ser. No. 09/954,987, filed Sep. 17, 2001, and published PCT application PCT/US01/29229, the contents of which are incorporated by reference. Human TLR9 cDNA (SEQ ID NO:6, GenBank Accession No. AF245704) and murine TLR9 cDNA (SEQ ID NO:8, GenBank Accession No. AF348140) in pT-Adv vector (from Clontech) were individually cloned into the expression vector pcDNA3.1 (−) from Invitrogen using the EcoRi site. Utilizing a “gain of function” assay it was possible to reconstitute human TLR9 (hTLR9) and murine TLR9 (mTLR9) signaling in CpG-DNA non-responsive human 293 fibroblasts (ATCC, CRL-1573). The expression vectors mentioned above were transfected into 293 fibroblast cells using the calcium phosphate method. […]
Since NF-kappa B activation is central to the IL-1/TLR signal transduction pathway (Medzhitov R et al. (1998) Mol Cell 2:253-258 (1998); Muzio M et al. (1998) J Exp Med 187:2097-101), cells were transfected with hTLR9 or co-transfected with hTLR9 and an NF-kappa B-driven luciferase reporter construct. […] After stimulus with CpG-ODN (2006, 2 μM, […], SEQ ID NO:1), GpC-ODN (2006-GC, 2 μM, […], SEQ ID NO:10), LPS (100 ng/ml) or media, NF-kappa B activation by luciferase readout (8 h, FIG. 10A) or IL-8 production by ELISA (48 h, FIG. 10B) were monitored. […]

[2] = molecular target: T1, hTLR9; assay: NF-kappa B luciferase activation in stably transfected 293-TLR9-Luc cells; format: cell-based
Procedure: Cells used for transfections were 293T (human embryo kidney cells, T-antigen transfected) or 293-TLR9-Luc (stable transfectants, human embryo kidney cells expressing the human TLR9 receptor and containing a genomic NF-kappa B-luciferase cassette).
Stimulation was performed 24 h after transfection. Medium of the cells was reduced to 1 ml (without medium change) and cells were stimulated with indicated amounts of R-848, LPS, ODN 8954, 2006 and IL-1 beta for 16 h.
Cell extracts were prepared by lysing the cells in 100 μl reporter lysis buffer using the freeze-thaw method. NF-kappa B stimulation was measured through luciferase activity (Promega). All data were normalized for beta-gal expression. Stimulation indices were calculated in reference to luciferase activity of medium without addition of ODN.
Since R-848 has immune modulatory properties, this experiment examined whether R-848-mediated immune responses are hTLR9-dependent. Cells stably transfected with hTLR9 and a NF-kappa B reporter construct (293-TLR-Luc cells) were incubated for 16 hours with IL-1, CpG ODN 2006, control non-CpG ODN 1982 (5′ […] 3′, SEQ ID NO:3), or increasing amounts of R-848. NF-kappa B activation was determined by measurement of luciferase activity. Activity is given in x-fold activation compared to luciferase activity in medium control.

response of cells expressing hTLR9 (NF-kappa B luciferase 8 h, IL-8 48 h) [1]: responded to CpG-DNA
NF-kappa B activation (x-fold activation compared to luciferase activity in medium control) ([2]; 293-TLR-Luc cells, 16 hours, 1 to 12 μg/ml): 10- to 30 fold
Substance: CpG ODN 2006
hTLR9-mediated NF-kappa B activation (in words) ([2]; cells expressing hTLR9 alone, 293-TLR-Luc with pcDNA (empty vector)): hTLR9-mediated activation of NF-kappa B by CpG ODN 2006
